Tests used:
SNB-19 [1] = experiment: Growth inhibition of human SNB19 cells assessed as cell growth at 10 uM after 48 hrs by sulforhodamine B assay; format: functional; settings: SNB-19, 48 h, read-out: Activity
MDA-MB-435 = experiment: Growth inhibition of human MDA-MB-435 cells after 48 hrs by sulforhodamine B assay; format: functional, cell-based; settings: MDA-MB-435, 48 h
HCT-15 [2] = experiment: Growth inhibition of human HCT15 cells after 48 hrs by sulforhodamine B assay; format: functional; settings: HCT-15, 48 h
M14 [3] = experiment: Growth inhibition of human M14 cells after 48 hrs by sulforhodamine B assay; format: functional; settings: M14, 48 h
TK-10 = experiment: Growth inhibition of human TK10 cells assessed as cell growth at 10 uM after 48 hrs by sulforhodamine B assay; format: functional; settings: TK-10, 48 h, read-out: Activity
[4] = Growth inhibition of human NCI-ADR-RES cells after 48 hrs by sulforhodamine B assay; format: functional
HCT-15 [5] = experiment: Growth inhibition of human HCT15 cells assessed as cell growth at 10 uM after 48 hrs by sulforhodamine B assay; format: functional; settings: HCT-15, 48 h, read-out: Activity
A498 = experiment: Growth inhibition of human A498 cells after 48 hrs by sulforhodamine B assay; format: functional, cell-based; settings: A498, 48 h
SK-MEL-28 = experiment: Growth inhibition of human SK-MEL-28 cells assessed as cell growth at 10 uM after 48 hrs by sulforhodamine B assay; format: functional; settings: SK-MEL-28, 48 h, read-out: Activity
UACC-257 = experiment: Growth inhibition of human UACC257 cells after 48 hrs by sulforhodamine B assay; format: functional; settings: UACC-257, 48 h
A549 [6] = experiment: Growth inhibition of human A549/ATCC cells assessed as cell growth at 10 uM after 48 hrs by sulforhodamine B assay; format: functional; settings: A549, 48 h, read-out: Activity
A549 [7] = experiment: Growth inhibition of human A549/ATCC cells after 48 hrs by sulforhodamine B assay; format: functional; settings: A549, 48 h
NCI-H322M = experiment: Growth inhibition of human NCI-H322M cells after 48 hrs by sulforhodamine B assay; format: functional
[8] = Growth inhibition of human HCC2998 cells assessed as cell growth at 10 uM after 48 hrs by sulforhodamine B assay; format: functional; settings: HCC 2998, 48 h, read-out: Activity
ACHN = experiment: Growth inhibition of human ACHN cells assessed as cell growth at 10 uM after 48 hrs by sulforhodamine B assay; format: functional; settings: read-out: Activity
SNB-19 [9] = experiment: Growth inhibition of human SNB19 cells after 48 hrs by sulforhodamine B assay; format: functional; settings: SNB-19, 48 h
SNB-75 = experiment: Growth inhibition of human SNB75 cells after 48 hrs by sulforhodamine B assay; format: functional; settings: SNB-75, 48 h
OVCAR-4 = experiment: Growth inhibition of human OVCAR4 cells assessed as cell growth at 10 uM after 48 hrs by sulforhodamine B assay; format: functional; settings: OVCAR-4, 48 h, read-out: Activity
PC-3 = experiment: Growth inhibition of human PC3 cells after 48 hrs by sulforhodamine B assay; format: functional, cell-based; settings: PC-3, 48 h
HCT-116 = experiment: Growth inhibition of human HCT116 cells after 48 hrs by sulforhodamine B assay; format: functional; settings: HCT-116, 48 h
SN12C = experiment: Growth inhibition of human SN12C cells after 48 hrs by sulforhodamine B assay; format: functional
[10] = Growth inhibition of human Hs 578T cells after 48 hrs by sulforhodamine B assay; format: functional
RXF 393 = experiment: Growth inhibition of human RXF393 cells after 48 hrs by sulforhodamine B assay; format: functional; settings: RXF 393, 48 h
OVCAR-3 = experiment: Growth inhibition of human OVCAR3 cells assessed as cell growth at 10 uM after 48 hrs by sulforhodamine B assay; format: functional; settings: OVCAR-3, 48 h, read-out: Activity
SW-620 = experiment: Growth inhibition of human SW620 cells assessed as cell growth at 10 uM after 48 hrs by sulforhodamine B assay; format: functional; settings: SW-620, 48 h, read-out: Activity
U-251 = experiment: Growth inhibition of human U251 cells after 48 hrs by sulforhodamine B assay; format: functional; settings: U-251, 48 h
HT-29 [11] = experiment: Growth inhibition of human HT-29 cells assessed as cell growth at 10 uM after 48 hrs by sulforhodamine B assay; format: functional; settings: HT-29, 48 h, read-out: Activity
DU-145 [12] = experiment: Growth inhibition of human DU145 cells assessed as cell growth at 10 uM after 48 hrs by sulforhodamine B assay; format: functional; settings: DU-145, 48 h, read-out: Activity
KM12 = experiment: Growth inhibition of human KM12 cells assessed as cell growth at 10 uM after 48 hrs by sulforhodamine B assay; format: functional; settings: KM12, 48 h, read-out: Activity
DU-145 [13] = experiment: Growth inhibition of human DU145 cells after 48 hrs by sulforhodamine B assay; format: functional; settings: DU-145, 48 h
[14] = Growth inhibition of human Hs 578T cells assessed as cell growth at 10 uM after 48 hrs by sulforhodamine B assay; format: functional; settings: read-out: Activity
M14 [15] = experiment: Growth inhibition of human M14 cells assessed as cell growth at 10 uM after 48 hrs by sulforhodamine B assay; format: functional; settings: M14, 48 h, read-out: Activity
786-0 = experiment: Growth inhibition of human 786-0 cells assessed as cell growth at 10 uM after 48 hrs by sulforhodamine B assay; format: functional; settings: 786-0, 48 h, read-out: Activity
HT-29 [16] = experiment: Growth inhibition of human HT-29 cells after 48 hrs by sulforhodamine B assay; format: functional; settings: HT-29, 48 h
SK-MEL-2 = experiment: Growth inhibition of human SK-MEL-2 cells assessed as cell growth at 10 uM after 48 hrs by sulforhodamine B assay; format: functional; settings: SK-MEL-2, 48 h, read-out: Activity
[17] = read-out: LC50 (the source's name)

COc1cc(-c2nn(-c3cccc(NC(=O)c4cccc(C(F)(F)F)c4)c3)cc2-c2ccncc2)ccc1Cl
growth at 10 µM (SNB-19 [1]): 47.3%
GI50 (MDA-MB-435): 0.705 µM
IC50 (MDA-MB-435): 0.71 µM
TGI (MDA-MB-435): 1.77 µM
GI50 (HCT-15 [2]): 1.55 µM
LC50 (HCT-15 [2]): > 50 µM
TGI (HCT-15 [2]): > 50 µM
GI50 (M14 [3]): 1.63 µM
LC50 (concentration killing 50% of cells) (M14 [3]): > 50 µM
TGI (M14 [3]): > 50 µM
growth at 10 µM (TK-10): 8.08%
GI50 [4]: 1.09 µM
TGI [4]: 3.17 µM
CC50 [4, 17]: > 50 µM
growth at 10 µM (HCT-15 [5]): 12.8%
GI50 (A498): 0.687 µM
IC50 (A498): 0.69 µM
TGI (A498): 2.78 µM
CC50 (A498; [17]): > 50 µM
growth at 10 µM (SK-MEL-28): 32.5%
GI50 (UACC-257): 27.9 µM
TGI (UACC-257): > 50 µM
CC50 (UACC-257; [17]): > 50 µM
growth at 10 µM (A549 [6]): 7.4%
GI50 (A549 [7]): 1.87 µM
LC50 (concentration killing 50% of starting cells) (A549 [7]): > 50 µM
TGI (A549 [7]): > 50 µM
GI50 (NCI-H322M): 10.8 µM
TGI (NCI-H322M): > 50 µM
CC50 (NCI-H322M; [17]): > 50 µM
growth at 10 µM [8]: 0.91%
growth at 10 µM (ACHN): 31.6%
GI50 (SNB-19 [9]): 2.46 µM
LC50 (concentration killing 50% of cells) (SNB-19 [9]): > 50 µM
TGI (SNB-19 [9]): > 50 µM
GI50 (SNB-75): 1.13 µM
LC50 (lethal concentration, 50% net cell kill) (SNB-75): > 50 µM
growth at 10 µM (OVCAR-4): 46.5%
GI50 (PC-3): 1.23 µM
IC50 (PC-3): 1.23 µM
TGI (PC-3): > 50 µM
CC50 (PC-3; [17]): > 50 µM
GI50 (HCT-116): 1.67 µM
TGI (HCT-116): > 50 µM
CC50 (HCT-116; [17]): > 50 µM
GI50 (SN12C): 3.31 µM
TGI (SN12C): > 50 µM
CC50 (SN12C; [17]): > 50 µM
GI50 [10]: 1.07 µM
TGI [10]: > 50 µM
CC50 [10, 17]: > 50 µM
GI50 (RXF 393): 0.811 µM
LC50 (concentration killing 50% of cells) (RXF 393): > 50 µM
TGI (RXF 393): 3.15 µM
growth at 10 µM (OVCAR-3): -25.6%
growth at 10 µM (SW-620): 36%
GI50 (U-251): 1.62 µM
LC50 (concentration killing 50% of cells) (U-251): > 50 µM
TGI (U-251): > 50 µM
growth at 10 µM (HT-29 [11]): -12.1%
growth at 10 µM (DU-145 [12]): 2.16%
growth at 10 µM (KM12): 13.4%
GI50 (DU-145 [13]): 1.76 µM
LC50 (DU-145 [13]): > 50 µM
TGI (DU-145 [13]): 32.1 µM
growth at 10 µM [14]: -5.69%
growth at 10 µM (M14 [15]): 12.3%
growth at 10 µM (786-0): 29.8%
GI50 (HT-29 [16]): 1.39 µM
TGI (HT-29 [16]): 20.1 µM
CC50 (HT-29 [16]; [17]): > 50 µM
growth at 10 µM (SK-MEL-2): -38.6%
